The values below come from publication PMC5727100, “Evolution of a flipped pathway creates metabolic innovation in tomato trichomes through BAHD enzyme promiscuity” (Nature Communications, 2017).

In this assay the target is T1, S. arcanum LA2172-ASAT2 (Solanum arcanum, UniProt A0A0U2QQP2).
T1 construct: pET28b, His-tag nickel purified from E. coli BL21 Rosetta
T1 sequence (A0A0U2QQP2 1-446): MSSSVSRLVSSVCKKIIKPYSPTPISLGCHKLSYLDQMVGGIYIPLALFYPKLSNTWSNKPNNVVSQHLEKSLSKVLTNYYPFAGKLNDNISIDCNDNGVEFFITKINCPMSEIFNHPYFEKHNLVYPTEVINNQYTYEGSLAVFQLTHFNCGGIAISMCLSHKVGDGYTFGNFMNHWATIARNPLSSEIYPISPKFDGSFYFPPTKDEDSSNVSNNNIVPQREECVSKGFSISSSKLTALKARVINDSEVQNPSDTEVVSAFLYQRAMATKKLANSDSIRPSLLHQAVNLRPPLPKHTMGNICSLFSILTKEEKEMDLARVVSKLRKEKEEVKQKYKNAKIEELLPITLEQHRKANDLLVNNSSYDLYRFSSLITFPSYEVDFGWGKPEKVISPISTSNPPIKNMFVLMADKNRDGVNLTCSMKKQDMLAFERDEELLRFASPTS
Briefly: LC/MS product detection. It counts as biochemical. To be noted: acyl-CoA donor 100 uM; acceptor 50 uM; pH 6.0, 30 C.

Turning to `CC(C)CC(=O)O[C@H]1[C@H](O)[C@@H](O)[C@@H](O[C@]2(CO)O[C@H](CO)[C@@H](O)[C@@H]2O)O[C@@H]1CO` [S1:5 (iC5^R4)], the LC/MS product detection result was “all characterized ASAT2 proteins in this tomato subclade possessed only F-type enzymatic activities”.
